Data from BindingDB's records for doi:10.1021/jm00139a009 (1981).

Biological target: T1, Dihydrofolate reductase (Rattus norvegicus, UniProt Q920D2)
T1 sequence (Q920D2 whole entry): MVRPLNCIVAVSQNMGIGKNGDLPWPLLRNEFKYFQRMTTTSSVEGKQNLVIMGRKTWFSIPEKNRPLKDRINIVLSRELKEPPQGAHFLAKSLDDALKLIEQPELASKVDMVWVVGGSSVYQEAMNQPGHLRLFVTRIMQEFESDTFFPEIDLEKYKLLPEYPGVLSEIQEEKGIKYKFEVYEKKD
Assay: Inhibitory activity against dihydrofolate reductase of rat liver

Question: How did the IC50 turn out when `Nc1nc(N)c2c(Cl)c(NCc3cccc(Br)c3)ccc2n1` was run?
Answer: The IC50 was 7.59 nM.

Question: How did the IC50 turn out when `Nc1nc(N)c2c(Cl)c(NC(=O)Cc3ccc4ccccc4c3)ccc2n1` was run?
Answer: Its IC50 is 5.01 nM.

Question: With `Nc1nc(N)c2c(S(=O)(=O)c3ccc4ccccc4c3)cccc2n1` as the compound, how does the IC50 read?
Answer: The IC50 was 15100 nM.

Question: Which IC50 does the source give for `Nc1nc(N)c2cc(Cl)ccc2n1` here?
Answer: Its IC50 is 3980 nM.

Question: `Nc1nc(N)c2c(Cl)c(N)ccc2n1` was tested. Which IC50 did it give?
Answer: The IC50 was 661 nM.

Question: Which IC50 does the source give for `Nc1nc(N)c2cc(C=O)ccc2n1` here?
Answer: The IC50 was 10000 nM.

Question: Which IC50 does the source give for `NCc1ccc2nc(N)nc(N)c2c1` here?
Answer: Its IC50 is 9330 nM.

Question: With `Nc1nc(N)c2cc(NC(=O)Cc3ccc4ccccc4c3)ccc2n1` as the compound, how does the IC50 read?
Answer: The IC50 was 5.01 nM.

Question: `Nc1nc(N)c2c(Sc3ccc4ccccc4c3)cccc2n1` was tested. Which IC50 did it give?
Answer: The IC50 was 7.08 nM.

Question: For `Nc1nc(N)c2cc(NC(=O)Cc3ccc(Cl)cc3)ccc2n1`, which IC50 is on record?
Answer: The IC50 was 22.9 nM.

Question: Which IC50 does the source give for `Nc1nc(N)c2c(/C=C\c3ccc4ccccc4c3)cccc2n1` here?
Answer: Its IC50 is 5250 nM.

Question: With `Nc1nc(N)c2c(Cl)cccc2n1` as the compound, how does the IC50 read?
Answer: Its IC50 is 562 nM.

Question: With `Nc1nc(N)c2c(Cl)c(Cl)ccc2n1` as the compound, how does the IC50 read?
Answer: Its IC50 is 200 nM.

Question: For `Cc1c(NC(=O)Cc2ccc(Cl)c(Cl)c2)ccc2nc(N)nc(N)c12`, which IC50 is on record?
Answer: The IC50 was 17 nM.

Question: For `Nc1nc(N)c2c([S+]([O-])c3ccc(Cl)c(Cl)c3)cccc2n1` (stereo not drawn), which IC50 is on record?
Answer: The IC50 was 55000 nM.

Question: How did the IC50 turn out when `Nc1nc(N)c2cc(NCc3ccc(Cl)c(Cl)c3)ccc2n1` was run?
Answer: Its IC50 is 18.2 nM.

Question: `Nc1nc(N)c2cc(Sc3ccc(Cl)c(Cl)c3)ccc2n1` was tested. Which IC50 did it give?
Answer: Its IC50 is 11 nM.

Question: With `Nc1nc(N)c2cc([S+]([O-])c3ccc4ccccc4c3)ccc2n1` (stereo not drawn) as the compound, how does the IC50 read?
Answer: The IC50 was 7.08 nM.

Question: `Nc1nc(N)c2c(CSc3ccc4ccccc4c3)cccc2n1` was tested. Which IC50 did it give?
Answer: The IC50 was 10 nM.

Question: `Nc1nc(N)c2c(/C=C/c3ccc4ccccc4c3)cccc2n1` was tested. Which IC50 did it give?
Answer: The IC50 was 3020 nM.

Question: Which IC50 does the source give for `Cc1ccc2nc(N)nc(N)c2c1` here?
Answer: Its IC50 is 2190 nM.

Question: How did the IC50 turn out when `Nc1nc(N)c2c(S(=O)(=O)c3ccc(Cl)c(Cl)c3)cccc2n1` was run?
Answer: The IC50 was 57500 nM.

Question: How did the IC50 turn out when `Cc1c(NC(=O)Cc2cccc(Br)c2)ccc2nc(N)nc(N)c12` was run?
Answer: The IC50 was 33.9 nM.

Question: With `Nc1nc(N)c2c(CSc3ccc(Cl)cc3)cccc2n1` as the compound, how does the IC50 read?
Answer: Its IC50 is 19.9 nM.

Question: For `Cc1c(NC(=O)Cc2ccc3ccccc3c2)ccc2nc(N)nc(N)c12`, which IC50 is on record?
Answer: Its IC50 is 4.17 nM.

Question: For `Nc1nc(N)c2c(Cl)c(Br)ccc2n1`, which IC50 is on record?
Answer: The IC50 was 100 nM.

Question: Which IC50 does the source give for `Nc1nc(N)c2c(Cl)c(NC(=O)Cc3ccc(Cl)c(Cl)c3)ccc2n1` here?
Answer: The IC50 was 24 nM.

Question: For `Nc1nc(N)c2c(Sc3ccc(Cl)c(Cl)c3)cccc2n1`, which IC50 is on record?
Answer: Its IC50 is 200 nM.

Question: How did the IC50 turn out when `O=[N+]([O-])c1ccc(/C=C/C=C/c2ccccc2)cc1` was run?
Answer: Its IC50 is 3.98 nM.

Question: For `Cc1cccc2nc(N)nc(N)c12` [GNF-Pf-690], which IC50 is on record?
Answer: Its IC50 is 813 nM.

Question: With `Nc1ccc2nc(N)nc(N)c2c1` [QUINAZOLINE-2,4,6-TRIAMINE] as the compound, how does the IC50 read?
Answer: Its IC50 is 26900 nM.

Question: Which IC50 does the source give for `Nc1nc(N)c2c(CCc3ccc4ccccc4c3)cccc2n1` [TCMDC-141975] here?
Answer: Its IC50 is 19.9 nM.

Question: With `Nc1nc(N)c2cc(Sc3cccc(C(F)(F)F)c3)ccc2n1` [WR-159412] as the compound, how does the IC50 read?
Answer: The IC50 was 36.3 nM.
